In publication PMC7933286, “Structure-guided selection of puromycin N-acetyltransferase mutants with enhanced selection stringency for deriving mammalian cell lines expressing recombinant proteins” (Scientific Reports, 2021) one finds X-ray crystal structure data, which are given here for three molecules.

The assay concerns the target T1, PAC (puromycin N-acetyltransferase) (Streptomyces alboniger, UniProt P13249).
T1 construct: native full-length pac amplified from pBABE-puro, N-terminal His6-tag (pET43a), expressed in E. coli BL21(DE3); IMAC and Superdex 75; tag removal not mentioned
In words: X-ray crystal structure. The format is binding.

[1] abbreviates: crystals grown with 2 mM AcCoA and 2 mM puromycin, pH 8.26, trapped reaction product.

T1 sequence (P13249 whole entry): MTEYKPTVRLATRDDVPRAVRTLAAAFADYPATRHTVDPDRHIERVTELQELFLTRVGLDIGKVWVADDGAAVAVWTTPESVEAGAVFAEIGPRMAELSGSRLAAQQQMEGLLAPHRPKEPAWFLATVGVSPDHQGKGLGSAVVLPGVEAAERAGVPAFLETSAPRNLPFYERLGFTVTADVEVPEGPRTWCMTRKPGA

On to `CC(=O)SCCNC(=O)CCNC(=O)[C@H](O)C(C)(C)COP(=O)(O)OP(=O)(O)OC[C@H]1O[C@@H](n2cnc3c(N)ncnc32)[C@H](O)[C@@H]1OP(=O)(O)O` [acetyl-CoA], for which the X-ray crystal structure entry (crystals with 0.1 mM AcCoA, pH 9.0, acetyl donor site) was “allowed the initial structure to be solved with AcCoA bound”.
With `COc1ccc(C[C@H](NC(C)=O)C(=O)N[C@H]2[C@@H](O)[C@H](n3cnc4c(N(C)C)ncnc43)O[C@@H]2CO)cc1` [N-acetylated puromycin], under setting [1], the X-ray crystal structure result is “The ligands modelled into this structure were CoA and N-acetylated puromycin”.
Consider `CC(C)(COP(=O)(O)OP(=O)(O)OC[C@H]1O[C@@H](n2cnc3c(N)ncnc32)[C@H](O)[C@@H]1OP(=O)(O)O)[C@@H](O)C(=O)NCCC(=O)NCCS` [CoA], for which, under setting [1], the X-ray crystal structure entry was “The ligands modelled into this structure were CoA and N-acetylated puromycin”.
